The values below come from paper PMC2191741 (The Journal of Experimental Medicine, 1994).

The subject of test [1] is human polyclonal IgM RF binding to mAb II-481. The following applies: text summary across the individual polyclonal IgM RFs tested.
Test [2] concerns gE of HSV-1. The experiment in a line: ELISA of hybridoma supernatants with isolated gE and whole HSV-1. Format: binding. The following applies: hybridoma supernatant; isolated gE 5 ug/ml. In general terms: An ELISA detects its analyte on a solid surface through an enzyme-linked reagent.

For CIKVAVS [reference compound], the “inhibition of RF binding to mAb II-481 by single inhibitor” value (shortened to “inhibition of RF binding”) in test [1] was “No inhibition”.
Still for that read-out and setting: to SGVPDRF belongs 62-90%.
Turning to HIWWNDN, the “inhibition of RF binding” value in test [1] is given as 80-100%.

B1: mAb II-481: IgG-2b mouse mAb directed at gE of HSV-1 (antibody, V domains shown)
VH: GILQPSQTLSLTCSFSGFSLTTYGIGVGWIRQPSGKGLEWLAHIWWNDNKFYNTVLKSRLTISRDTSNNQVFLRIASMDTADTATYYCARMRDGAWFAYWGQGTLVTVSA
VL: SLAVSAGEKVTMTCKSSQSVLYSSDHKNYLAWYQQKPGQSPKLLIYWASTRESGVPDRFTGSGSGTDFTLTINNVQTEDLAVYFCHQYLSSFTFGGGTKLEIQ
For the molecule B1, the “inhibition of RF binding” value in test [1] is given as “complete inhibition”. For the same molecule, the “reactivity with isolated gE and whole HSV-1 by ELISA” value in test [2] is recorded as “strong anti-gE specificity”.
